Results published in ChEMBL document CHEMBL1136116 (Bioorg Med Chem Lett, 2003).

Key:
[1] = target: Cyclin-dependent kinase 1/cyclin B (Homo sapiens, UniProt P06493); test: Inhibition of Cyclin-dependent kinase 1-cyclin B; format: protein-complex assay
[2] = target: Cyclin-dependent kinase 4/cyclin D (Homo sapiens, UniProt P11802); test: Inhibition of CDK4-Cyclin D; format: protein-complex assay
[3] = target: Cyclin-dependent kinase 2/cyclin E (Homo sapiens, UniProt P24941); test: Inhibitory activity against Cyclin-dependent kinase 2-cyclin E; format: protein-complex assay
A2780 = test: Cytotoxic effect on ovarian cancer cell line (A2780); format: functional, cell-based; settings: Homo sapiens

SMILES | IC50 [1] [nM] | IC50 [2] [nM] | IC50 [3] [nM] | IC50 (A2780) [nM]
CCCCOc1c([S+]([O-])c2ccccc2)cnc2[nH]ncc12 (stereo not given) |  |  | 340 | 
CCCCOc1c(C(=O)c2nccs2)cnc2[nH]ncc12 | 450 |  | 210 | 
CCCCOc1c(S(=O)(=O)c2ccccc2)cnc2[nH]ncc12 |  |  | 520 | 
CCCCOc1c(C(=O)Cc2ccccc2)cnc2[nH]ncc12 |  |  | > 1000 | 
CCCCOc1c(C(C)=O)cnc2[nH]ncc12 |  |  | > 1000 | 
CCCCOc1c(C(=O)Nc2ccccc2)cnc2[nH]ncc12 |  |  | 19000 | 
CCCCOc1c(C(=O)c2cccnc2)cnc2[nH]ncc12 |  |  | 2400 | 
CCCCOc1c(C(=O)c2c(C)cc(C)cc2C)cnc2[nH]ncc12 |  |  | > 1000 | 
CCCCOc1c(C(=O)c2ccccc2C)cnc2[nH]ncc12 | 410 |  | 730 | 
CCCCOc1c(C(=O)C2CC2)cnc2[nH]ncc12 |  |  | 2700 | 
CCCCOc1c(C(=O)c2ccccc2)cnc2[nH]ncc12 [SQ-67563] |  | > 25000 |  | 
CCCCOc1c(C(=O)c2cccc(C)c2)cnc2[nH]ncc12 |  |  | 660 | 
CCCCOc1c(C(=O)OC)cnc2[nH]ncc12 |  |  | > 10000 | 
CCCCOc1c(C(=O)c2ccc(C)cc2)cnc2[nH]ncc12 |  |  | 210 | 
CCCCOc1c(C(=O)NCC)cnc2[nH]ncc12 |  |  | 8100 | 
CCCCOc1c(C(=O)c2cccs2)cnc2[nH]ncc12 | 230 |  | 200 | 

The remaining molecules from weak to strong by IC50 [3], led by results:

IC50 [1] [nM] | IC50 [2] [nM] | IC50 [3] [nM] | SMILES | IC50 (A2780) [nM]
280 |  | 180 | CCCCOc1c(C(=O)c2ccco2)cnc2[nH]ncc12 | 
32 | 21000 | 64 | CCCCOc1c(C(=O)c2c(F)cccc2F)cnc2[nH]ncc12 | 
360 | 24000 | 36 | CCCCOc1c(C(=O)c2ccccc2F)cnc2[nH]ncc12 | 
13 | 310 | 27 | CCCCOc1c(C(=O)c2c(F)cc(Cl)cc2F)cnc2[nH]ncc12 | 
7 | 230 | 22 | CCCCOc1c(C(=O)c2c(F)cc(OC)cc2F)cnc2[nH]ncc12 | 
17 | 370 | 20 | CCCCOc1c(C(=O)c2c(F)cc(Br)cc2F)cnc2[nH]ncc12 | 
6 | 230 | 9 | CCCCOc1c(C(=O)c2c(F)cc(C)cc2F)c[nH]c2nncc1-2 | 760
